From the supplement of paper PMC10307832

Columns and labels:
Assay in all cases: relative viability (nuclei count vs DMSO), 5 days (fraction); higher = more cells survive
[1] = test system: LOU-NH91
Outline: (§1)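 Lung cancer cell lines in 1536-well plates were dosed by pin tool the day after seeding, either with one drug alone or with a fixed anchor-drug dose plus five library-drug doses (not always all listed) in √10 steps. After 5 days, cells were fixed and their nuclei stained in one step (final 0.05% Triton X-100, 1% formaldehyde, 1 ug/ml Hoechst), then counted on 4× images. Relative viability is the nuclei count in treated wells divided by that in vehicle wells. Values are medians of duplicate plates.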

[2] = test system: LU99A
Outline: as §1

[3] = test system: NCI-H1395
Outline: as §1

[4] = test system: NCI-H1437
Outline: as §1

[5] = test system: NCI-H1666
Outline: as §1

[6] = test system: NCI-H1975
Outline: as §1

[7] = test system: NCI-H2085
Outline: as §1

[8] = test system: NCI-H2087
Outline: as §1

[9] = test system: NCI-H647
Outline: as §1

[10] = test system: PC-3 [JPC-3]
Outline: as §1

[11] = test system: SW 1573
Outline: as §1

NC(=O)Nc1cc(-c2cccc(F)c2)sc1C(=O)N[C@H]1CCCNC1 [AZD7762] + CC1(C)CCC(c2ccc(Cl)cc2)=C(CN2CCN(c3ccc(C(=O)NS(=O)(=O)c4ccc(N[C@H](CCN5CCOCC5)CSc5ccccc5)c(S(=O)(=O)C(F)(F)F)c4)cc3)CC2)C1 [Navitoclax] (partner 0.5 µM)
relative viability ([1]; first compound 0.1 µM): 0.619
relative viability ([1]; first compound 0.3162 µM): 0.562
relative viability ([1]; first compound 1 µM): 0.4
relative viability ([2]; first compound 0.01 µM): 0.81
relative viability ([2]; first compound 0.03162 µM): 0.869
relative viability ([2]; first compound 0.1 µM): 0.718
relative viability ([2]; first compound 0.3162 µM): 0.665
relative viability ([2]; first compound 1 µM): 0.514
relative viability ([3]; first compound 0.01 µM): 1.27
relative viability ([3]; first compound 0.03162 µM): 1.66
relative viability ([3]; first compound 0.1 µM): 1.41
relative viability ([3]; first compound 0.3162 µM): 0.634
relative viability ([3]; first compound 1 µM): 0.408
relative viability ([4]; first compound 0.01 µM): 1.09
relative viability ([4]; first compound 0.03162 µM): 1.04
relative viability ([4]; first compound 0.1 µM): 1.07
relative viability ([4]; first compound 0.3162 µM): 1.08
relative viability ([4]; first compound 1 µM): 1.05
relative viability ([5]; first compound 0.01 µM): 1.24
relative viability ([5]; first compound 0.03162 µM): 1.36
relative viability ([5]; first compound 0.1 µM): 1.23
relative viability ([5]; first compound 0.3162 µM): 0.797
relative viability ([5]; first compound 1 µM): 0.661
relative viability ([6]; first compound 0.01 µM): 1.03
relative viability ([6]; first compound 0.03162 µM): 0.953
relative viability ([6]; first compound 0.1 µM): 1.11
relative viability ([6]; first compound 0.3162 µM): 0.938
relative viability ([6]; first compound 1 µM): 0.676
relative viability ([7]; first compound 0.01 µM): 1.27
relative viability ([7]; first compound 0.03162 µM): 1.11
relative viability ([7]; first compound 0.1 µM): 1.24
relative viability ([7]; first compound 0.3162 µM): 1.25
relative viability ([7]; first compound 1 µM): 1.03
relative viability ([8]; first compound 0.01 µM): 1.13
relative viability ([8]; first compound 0.03162 µM): 1
relative viability ([8]; first compound 0.1 µM): 1.27
relative viability ([8]; first compound 0.3162 µM): 1.17
relative viability ([8]; first compound 1 µM): 1.28
relative viability ([9]; first compound 0.01 µM): 1.33
relative viability ([9]; first compound 0.03162 µM): 1.08
relative viability ([9]; first compound 0.1 µM): 0.969
relative viability ([9]; first compound 0.3162 µM): 0.858
relative viability ([9]; first compound 1 µM): 0.277
relative viability ([10]; first compound 0.01 µM): 0.776
relative viability ([10]; first compound 0.03162 µM): 0.824
relative viability ([10]; first compound 0.1 µM): 0.802
relative viability ([10]; first compound 0.3162 µM): 0.847
relative viability ([10]; first compound 1 µM): 0.823
relative viability ([11]; first compound 0.01 µM): 1.19
relative viability ([11]; first compound 0.03162 µM): 1.12
relative viability ([11]; first compound 0.1 µM): 1.21
relative viability ([11]; first compound 0.3162 µM): 0.764
relative viability ([11]; first compound 1 µM): 0.887
